# From patent US9212168B2 (priority 2011, dated 2015)
# System: HCV genotype 1a replicon
# Experiment: HCV genotype 1a replicon assay (NS3 protease activity readout)
# Format: cell-based, hepatitis C virus
# Settings: for Genotype 1a: HCV genotype 1a replicon; for EC50: Hepatitis C virus, read-out: Genotype 1a, HCV genotype 1a replicon
# Summary of the method: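 EC50 values came from a 4-parameter robust fit of fluorescence (ex 340, em 509 nm) produced by NS3-specific protease in lysates, assayed with 15 μM FRET substrate for 20 min at 37° C, after 48 or 72 hours of compound exposure (0.5% DMSO) of Huh7.5-derived APC89 genotype 1a replicon cells.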
SMILES,Genotype 1a,EC50 [nM]
CNC(=O)N1C[C@@H](C)N(c2ccc(C(=O)Nc3cc(OC(F)(F)F)c(-c4ccc(-c5c[nH]c([C@@H]6C[C@H](C)CN6C(=O)[C@@H](NC(=O)OC)C6CC6)n5)cc4)cc3Cl)cn2)C[C@@H]1C [Example 7-3],D (D represents pEC50>10 (EC50<0.1 nM)),–
COC(=O)N[C@H](C(=O)N1C[C@@H](C)C[C@H]1c1nc(-c2ccc(-c3cc(F)c(NC(=O)c4ccc(N5CCN(C(=O)C(C)(C)CO)C[C@H]5C)nc4)cc3OC(F)(F)F)cc2)c[nH]1)[C@H](C)O [Example 13-26],–,< 0.1
COC(=O)NC(C(=O)N1CC(C)CC1c1nc(-c2ccc(-c3ccc(NC(=O)c4ccc(N5CCN(C(=O)C(C)(C)C)CC5C)nc4)cc3OC(F)(F)F)cc2)c[nH]1)C(C)O (stereo not shown) [Example 13-13],D (D represents pEC50>10 (EC50<0.1 nM)),–
COC(=O)N[C@H](C(=O)N1C[C@@H](C)C[C@H]1c1nc(-c2ccc(-c3cc(F)c(NC(=O)c4ccc(N5CCN(C(=O)[C@H]6CC6(C)C)C[C@H]5C)nc4)cc3Cl)cc2)c[nH]1)C(C)C [Example 1-76],D (D represents pEC50>10 (EC50<0.1 nM)),–
COC(=O)N[C@H](C(=O)N1[C@H](c2nc(-c3ccc(-c4ccc(C(=O)Nc5ccc(N6CCN(C(=O)[C@]7(C)CCCN7C(=O)[C@@H](NC(=O)OC)C(C)C)C[C@H]6C)nc5)cc4OC(F)(F)F)cc3)c[nH]2)C[C@@H]2CCCC[C@@H]21)C(C)C [Example 6-14],–,< 0.1
COC(=O)N[C@H](C(=O)N1C[C@@H](N(C)C)C[C@H]1c1nc(-c2ccc(-c3cc(Cl)c(NC(=O)c4ccc(N5CCN(C(=O)[C@H]6CC6(C)C)C[C@H]5C)nc4)cc3OC(F)(F)F)cc2)c(Cl)[nH]1)C(C)C [Example 2-8],D (D represents pEC50>10 (EC50<0.1 nM)),–
COC(=O)N[C@H](C(=O)N1C[C@@H](C)C[C@H]1c1nc(-c2ccc(-c3cc(F)c(NC(=O)c4ccc(N5CCN(C(=O)NN(C)C)C[C@H]5C)nc4)cc3OC(F)(F)F)cc2)c[nH]1)C(C)C [Example 1-95],"C (C represents pEC50 between and 9 and about 10, (EC50 between 1 nM and 0.1 nM))",–
CNC(=O)N1C[C@@H](C)N(c2ccc(C(=O)Nc3cc(OC(F)(F)F)c(-c4ccc(-c5c[nH]c([C@@H]6C[C@H](C)CN6C(=O)C(C)N(C)C(=O)OC)n5)cc4)cc3Cl)cn2)C[C@@H]1C (stereo partly shown) [Example 7-14],–,< 0.1
COC(=O)N[C@H](C(=O)N1C[C@@H](O)C[C@H]1c1nc(-c2ccc(-c3cc(Cl)c(NC(=O)c4ccc(N5CCN(C(=O)C(C)(C)C)C[C@H]5C)nc4)cc3OC(F)(F)F)cc2)c[nH]1)C(C)C [Example 26-8],"C (C represents pEC50 between and 9 and about 10, (EC50 between 1 nM and 0.1 nM))",–
COC(=O)NC(C(=O)N1C[C@@H](C)C[C@H]1c1nc(-c2ccc(-c3ccc(C(=O)Nc4ccc(N5CCN(C(=O)C(C)(C)C)C[C@H]5C)nc4)c(F)c3OC(F)(F)F)cc2)c[nH]1)C(C)C (stereo partly shown) [Example 25-1],–,0.1 to 1
COC(=O)N[C@H](C(=O)N1[C@H](c2nc(-c3ccc(-c4ccc(C(=O)Nc5ccc(N6CCN(C(=O)[C@]7(C)C[C@@H](O)CN7C(=O)OC(C)(C)C)C[C@H]6C)nc5)cc4OC(F)(F)F)cc3)c[nH]2)C[C@@H]2CCCC[C@@H]21)C(C)C [Example 6-16],–,1 to 10
COC(=O)N[C@@H](CCCCN)C(=O)N1C[C@@H](C)C[C@H]1c1nc(-c2ccc(-c3cc(Cl)c(NC(=O)c4ccc(N5CCN(C(=O)C(C)(C)C)C[C@H]5C)nc4)cc3OC(F)(F)F)cc2)c[nH]1 [Example 13-33],–,< 0.1
COC(=O)NC(C(=O)N1CC(C)CC1c1nc(-c2ccc(-c3cc(Cl)c(NC(=O)c4ccc(N5CCN(C(=O)C6CC6(F)Cl)CC5C)nc4)cc3OC(F)(F)F)cc2)c[nH]1)C(C)C (mixture of isomers) [Example 1-59],D (D represents pEC50>10 (EC50<0.1 nM)),–
COC(=O)N[C@H](C(=O)N1C[C@@H](C)C[C@H]1c1nc(-c2ccc(-c3cc(Cl)c(NC(=O)c4ccc(N5C[C@H](C)N(C(=O)[C@H]6CCCN6S(C)(=O)=O)C[C@H]5C)nc4)cc3OC(F)(F)F)cc2)c[nH]1)C(C)C [Example 1-45],D (D represents pEC50>10 (EC50<0.1 nM)),–
COCCO[C@H](C)[C@H](NC(=O)OC)C(=O)N1C[C@@H](C)C[C@H]1c1nc(-c2ccc(-c3cc(Cl)c(NC(=O)c4ccc(N5CCN(C(=O)C(C)(C)C)C[C@H]5C)nc4)cc3OC(F)(F)F)cc2)c[nH]1 [Example 13-9],–,< 0.1
COC(=O)N[C@H](C(=O)N1C[C@@H](C)C[C@H]1c1nc(-c2ccc(-c3ccc(NC(=O)c4ccc(N5CCN(C(=O)C(C)(C)C)C[C@H]5C)nc4)cc3C(F)(F)F)cc2)c[nH]1)C(C)C [Example 1-63],D (D represents pEC50>10 (EC50<0.1 nM)),–
COC(=O)N[C@H](C(=O)N1C[C@@H](C)C[C@H]1c1nc(-c2ccc(-c3ccc(C(=O)Nc4ccc(N5CCN(C(=O)[C@]6(C)CCCN6C(=O)[C@@H](NC(=O)OC)C(C)C)C[C@H]5C)nc4)cc3OC(F)(F)F)cc2)c[nH]1)C(C)C [Example 4-3],D (D represents pEC50>10 (EC50<0.1 nM)),–
CCN(C)C(C)C(=O)N1CCN(c2ccc(C(=O)Nc3cc(OC(F)(F)F)c(-c4ccc(-c5c[nH]c([C@@H]6C[C@H](C)CN6C(=O)[C@@H](NC(=O)OC)C(C)C)n5)cc4)cc3Cl)cn2)[C@H](C)C1 (stereo partly shown) [Example 12-22],–,0.1 to 1
COC(=O)N[C@H](C(=O)N1C[C@@H](C)C[C@H]1c1nc(-c2ccc(-c3cc(F)c(NC(=O)c4ccc(N5CCN(C(=O)C6CC67CC7)C[C@H]5C)nc4)cc3F)cc2)c[nH]1)C(C)C (stereo partly shown) [Example 1-90],"C (C represents pEC50 between and 9 and about 10, (EC50 between 1 nM and 0.1 nM))",–
COC(=O)N[C@H](C(=O)N1C[C@@H](C)C[C@H]1c1nc(-c2ccc(-c3ccc(C(=O)Nc4ccc(N5CCN(C(=O)C(C)(C)C)C[C@H]5C)nc4)cc3OC(F)F)cc2)c[nH]1)C1CCOCC1 [Example 25-5],D (D represents pEC50>10 (EC50<0.1 nM)),–
COC(=O)NC(C(=O)N1CC(OC)CC1c1nc(-c2ccc(-c3cc(Cl)c(NC(=O)c4ccc(N5CCN(C(=O)C(C)(C)CO)CC5C)nc4)cc3OC(F)(F)F)cc2)c[nH]1)C(C)OC (stereo not shown) [Example 16-8],D (D represents pEC50>10 (EC50<0.1 nM)),–
CCC(=O)N1CCC[C@@H]1C(=O)N1CCN(c2ccc(C(=O)Nc3cc(OC(F)(F)F)c(-c4ccc(-c5c[nH]c([C@@H]6C[C@H](C)CN6C(=O)[C@@H](NC(=O)OC)C(C)C)n5)cc4)cc3Cl)cn2)[C@H](C)C1 [Example 1-48],D (D represents pEC50>10 (EC50<0.1 nM)),–
COC(=O)N[C@H](C(=O)N1C[C@@H](N(C)C)C[C@H]1c1nc(-c2ccc(-c3ccc(C(=O)Nc4ccc(N5CCN(C(=O)[C@]6(C)CCCN6C(=O)[C@@H](NC(=O)OC)C(C)C)C[C@H]5C)nc4)cc3)cc2)c[nH]1)C(C)C [Example 6-3],–,0.1 to 1
COC(=O)N[C@H](C(=O)N1C[C@@H](S(C)(=O)=O)C[C@H]1c1nc(-c2ccc(-c3ccc(C(=O)Nc4ccc(N5CCN(C(=O)C(C)(C)C)C[C@H]5C)nc4)cc3OC(F)(F)F)cc2)c[nH]1)C(C)C [Example 6-22],–,1 to 10
COC(=O)N[C@H](C(=O)N1C[C@@H](C)C[C@H]1c1nc(-c2ccc(-c3cc(Cl)c(NC(=O)c4ccc(N5CCN(C(=O)[C@H]6CCCN6C(=O)C6CC6)C[C@H]5C)nc4)cc3OC(F)(F)F)cc2)c[nH]1)C(C)C [Example 1-51],D (D represents pEC50>10 (EC50<0.1 nM)),–
